Assay results published in paper PMC4222822, “Discovery and Characterization of a Potent and Selective Inhibitor of Aedes aegypti Inward Rectifier Potassium Channels” (PLoS ONE, 2014).

Tests used:
Kir2.2 = molecular target: T1, Kir2.2 (Homo sapiens, UniProt Q14500); test: Tl+ flux selectivity assay, Kir2.2; format: cell-based; settings: n = 2 independent experiments in triplicate, read-out: Inhibition of Tl+ flux (IC50)
T1 construct: expressed in transfected cells
T1 sequence (Q14500 1-433): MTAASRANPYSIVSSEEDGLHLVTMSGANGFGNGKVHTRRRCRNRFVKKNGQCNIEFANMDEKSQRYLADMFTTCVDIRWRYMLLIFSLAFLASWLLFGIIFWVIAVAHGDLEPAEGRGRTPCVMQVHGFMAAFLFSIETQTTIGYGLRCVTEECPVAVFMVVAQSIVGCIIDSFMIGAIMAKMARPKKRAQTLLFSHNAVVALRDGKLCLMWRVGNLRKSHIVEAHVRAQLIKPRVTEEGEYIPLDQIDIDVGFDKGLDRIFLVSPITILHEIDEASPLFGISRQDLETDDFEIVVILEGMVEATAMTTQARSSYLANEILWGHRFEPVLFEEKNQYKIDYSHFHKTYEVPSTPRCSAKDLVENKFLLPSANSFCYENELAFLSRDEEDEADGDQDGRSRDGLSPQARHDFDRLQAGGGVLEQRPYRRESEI
Experimental: [Worded in the source for another target; used here, by the source, with some conditions changed.] (§1) Tl^+ flux assays were performed essentially as described previously, [18], [19]. Briefly, stably transfected T-Rex-HEK-293 cells expressing AeKir1 channels were cultured overnight in 384-well plates (20,000 cells/20 µL/well black-walled, clear-bottomed BD PureCoat amine-coated plates (BD, Bedford, MA) with a plating media containing DMEM, 10% dialyzed FBS and 1 µg/mL tetracycline. The next day, the cell culture medium was replaced with a dye-loading solution containing assay buffer (Hanks Balanced Salt Solution with 20 mM HEPES, pH 7.3), 0.01% (w/v) Pluronic F-127 (Life Technologies, Carlsbad, CA), and 1.2 µM of the thallium-sensitive dye Thallos-AM (TEFlabs, Austin, TX). Following 1 hr incubation at room temperature, the dye-loading solution was washed from the plates and replaced with 20 µL/well of assay buffer. […] Tl^+ flux data were analyzed as previously described, [21], [22] using a combination of Excel (Microsoft Corp, Redmond, WA) with XLfit add-in (IDBS, Guildford, Surrey, UK) and OriginPro (OriginLab, Northampton, MA) software. […] The slope of the fluorescence increase beginning 5 s after Tl^+ addition and ending 15 s after Tl^+ addition was calculated.

Kir6.2/SUR1 = molecular target: T2, Kir6.2/SUR1 (Homo sapiens, UniProt Q14654); test: Tl+ flux selectivity assay, Kir6.2/SUR1; format: cell-based; settings: Kir6.2/SUR1, diazoxide 250 µM; n = 2 independent experiments in triplicate; read-out: Inhibition of Tl+ flux (IC50)
T2 construct: expressed in transfected cells
Experimental: [Worded in the source for another target; used here, by the source, with some conditions changed.] as §1

melatonin MT1 receptor = melatonin MT1 receptor (Homo sapiens, UniProt P48039); test: Radioligand displacement assay, melatonin MT1 receptor; format: binding, mammalian; settings: 10 µM VU625
mosquitoes = test: Toxicity when applied to the cuticle (topical); format: in vivo; settings: Piermarini, unpublished observations

Sequence of melatonin MT1 receptor (P48039 whole entry): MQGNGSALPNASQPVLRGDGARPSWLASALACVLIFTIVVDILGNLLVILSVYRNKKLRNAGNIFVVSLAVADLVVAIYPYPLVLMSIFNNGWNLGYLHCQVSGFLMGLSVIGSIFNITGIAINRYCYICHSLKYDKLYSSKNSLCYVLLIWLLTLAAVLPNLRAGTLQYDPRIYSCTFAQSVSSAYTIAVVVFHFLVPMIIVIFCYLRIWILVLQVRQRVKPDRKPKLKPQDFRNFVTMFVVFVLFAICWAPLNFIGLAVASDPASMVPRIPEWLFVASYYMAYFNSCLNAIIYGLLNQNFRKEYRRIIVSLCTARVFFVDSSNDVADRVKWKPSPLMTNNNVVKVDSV
T2 sequence (Q14654 whole entry): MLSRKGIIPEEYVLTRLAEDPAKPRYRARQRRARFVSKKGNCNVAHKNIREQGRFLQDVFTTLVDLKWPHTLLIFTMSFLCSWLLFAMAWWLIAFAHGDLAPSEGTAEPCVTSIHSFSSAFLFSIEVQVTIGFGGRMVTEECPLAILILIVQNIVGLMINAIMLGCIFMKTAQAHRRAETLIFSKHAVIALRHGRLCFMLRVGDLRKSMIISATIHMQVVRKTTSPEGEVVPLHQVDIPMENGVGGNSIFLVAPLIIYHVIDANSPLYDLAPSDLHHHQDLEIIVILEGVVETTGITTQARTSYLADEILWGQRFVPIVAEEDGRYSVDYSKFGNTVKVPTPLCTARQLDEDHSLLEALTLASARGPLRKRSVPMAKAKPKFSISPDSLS
T2 sequence (Q09428 whole entry partner): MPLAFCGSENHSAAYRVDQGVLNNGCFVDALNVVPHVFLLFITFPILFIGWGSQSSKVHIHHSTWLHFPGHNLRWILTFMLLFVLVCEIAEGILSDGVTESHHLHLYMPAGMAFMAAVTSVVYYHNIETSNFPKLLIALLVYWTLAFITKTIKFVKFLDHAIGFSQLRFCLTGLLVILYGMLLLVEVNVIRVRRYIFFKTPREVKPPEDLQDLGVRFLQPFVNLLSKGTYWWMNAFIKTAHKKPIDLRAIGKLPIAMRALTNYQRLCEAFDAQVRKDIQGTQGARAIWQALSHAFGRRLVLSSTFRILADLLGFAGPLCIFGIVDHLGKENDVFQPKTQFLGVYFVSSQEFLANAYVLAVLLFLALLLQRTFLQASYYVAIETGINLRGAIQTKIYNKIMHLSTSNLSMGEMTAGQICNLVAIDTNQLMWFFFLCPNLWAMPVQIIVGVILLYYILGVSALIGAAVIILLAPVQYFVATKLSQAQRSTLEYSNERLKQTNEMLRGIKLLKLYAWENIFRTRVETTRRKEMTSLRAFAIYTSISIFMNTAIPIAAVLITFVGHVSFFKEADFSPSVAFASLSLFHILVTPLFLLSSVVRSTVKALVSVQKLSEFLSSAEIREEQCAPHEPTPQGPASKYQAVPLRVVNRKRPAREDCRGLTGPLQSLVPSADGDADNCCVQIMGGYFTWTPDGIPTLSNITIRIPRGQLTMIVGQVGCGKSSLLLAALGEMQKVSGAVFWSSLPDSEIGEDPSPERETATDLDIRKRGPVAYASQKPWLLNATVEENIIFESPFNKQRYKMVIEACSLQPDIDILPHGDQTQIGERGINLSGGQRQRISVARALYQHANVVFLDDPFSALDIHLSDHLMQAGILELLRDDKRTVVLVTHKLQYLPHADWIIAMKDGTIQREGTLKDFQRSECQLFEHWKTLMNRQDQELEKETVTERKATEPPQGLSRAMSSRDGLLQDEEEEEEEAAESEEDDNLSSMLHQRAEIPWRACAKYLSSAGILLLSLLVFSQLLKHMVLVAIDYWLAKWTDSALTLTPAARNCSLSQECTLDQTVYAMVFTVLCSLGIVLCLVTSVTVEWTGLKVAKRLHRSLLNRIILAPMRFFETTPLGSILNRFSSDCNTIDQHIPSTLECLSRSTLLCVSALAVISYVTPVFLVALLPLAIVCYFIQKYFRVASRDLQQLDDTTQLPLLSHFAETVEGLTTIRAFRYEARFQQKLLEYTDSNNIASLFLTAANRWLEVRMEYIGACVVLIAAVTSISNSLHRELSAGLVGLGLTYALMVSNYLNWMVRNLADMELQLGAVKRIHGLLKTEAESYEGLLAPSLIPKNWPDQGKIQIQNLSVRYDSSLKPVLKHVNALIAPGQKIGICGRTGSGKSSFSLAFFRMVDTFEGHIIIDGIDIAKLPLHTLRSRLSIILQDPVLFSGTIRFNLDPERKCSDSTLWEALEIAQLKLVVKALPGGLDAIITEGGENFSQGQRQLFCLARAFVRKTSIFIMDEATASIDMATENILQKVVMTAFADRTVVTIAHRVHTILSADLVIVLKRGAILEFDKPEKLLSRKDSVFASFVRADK

Work on `CCC(=O)N1c2ccc(S(=O)(=O)Nc3cccc(OC)c3)cc2CC1C` (stereo not shown) [VU625, N-(3-methoxyphenyl)-2-methyl-1-propionylindoline-5-sulfonamide] yielded an IC50 (Kir2.2) of over 30 µM, an IC50 (Kir6.2/SUR1) of over 30 µM and a radioligand displacement (melatonin MT1 receptor) of 56%. For the same compound, the “toxicity when applied to the cuticle” value (mosquitoes) was “lack of topical activity”.
